Experimental data published in patent publication US20230203485A1, “METHODS FOR MODULATING MHC-I EXPRESSION AND IMMUNOTHERAPY USES THEREOF” (Dana-Farber Cancer Institute, Inc., priority 2020, published 2023).

Test system: class I bound peptides
Experiment: HLA-I immunoprecipitation and LC-MS/MS immunopeptidome of cell lines +/- IFN-γ
Assay type: cell-based, human
Protocol: Up to 40 million or 0.2 g of MCC cells were immunoprecipitated. Briefly, MCC cells were harvested and lysed in ice-cold lysis buffer containing […] (pH 8.0), 1 mM EDTA (pH 8.0), 0.1M sodium chloride, Triton X-100, 0.06M octyl β-d-glucopyranoside, 100 U/mL DNAse I, 1 mM phenylmethanesulfonyl fluoride (all from Sigma Aldrich), and protease inhibitor cocktail (Roche Diagnostics). Cell lysate was centrifuged at 12,700 rpm at 4° C. for 22 min. Lysate supernatant was coupled with Gammabind Plus sepharose beads (GE Healthcare) and incubated with 10 μg of HLA-I antibody (Clone W6/32, Santa Cruz Biotechnologies) at 4° C. under rotary agitation for 3 h. After incubation, the lysate-bead-antibody mixture was briefly centrifuged and the supernatant was discarded. Beads were washed with lysis buffer, consisting of wash buffer containing 40 mM Tris (pH 8.0), 1 mM EDTA (pH 8.0), 0.1M sodium chloride, 0.06M octyl β-d-glucopyranoside, and 20 mM Tris buffer, without protease inhibitors. […] Peptides of up to three immunoprecipitations were combined, acid eluted, and analyzed using LC/MS-MS. […] Peptides were eluted in a 6-30% gradient (EasyLC 1000 or 1200, Thermo Fisher Scientific) and analyzed on a QExactive Plus, Fusion Lumos, or Orbitrap Exploris 480 (Thermo Fisher Scientific). […] Fractions were analyzed on a Fusion Lumos or Orbitrap Exploris 480 equipped with a FAIMSpro interface. […]

## IFN-γ: interferon gamma used to stimulate MCC cell lines
Across 7 cell lines, following IFN-γ stimulation
  median fold increase in the abundance of class I bound peptides: 12 fold
Cell lines with vs without IFN-γ treatment
  frequencies of peptides mapping to each HLA allele: increase in HLA-B-presented peptides
